Data published in ChEMBL document CHEMBL5230155, “Recent contributions of quinolines to antimalarial and anticancer drug discovery research” (Eur J Med Chem, 2021).
pEC50, pIC50: −log10 of the molar value. Blank lines part the entries; values can stand above or below the compound they belong to.

Assays:
[1] = system: Plasmodium falciparum; assay: Antimalarial activity against CQ-sensitive Plasmodium falciparum 3D7; assay type: functional, organism-based
[2] = system: Plasmodium berghei; assay: Antimalarial activity against liver stage Plasmodium berghei; assay type: functional, organism-based
[3] = target: Epidermal growth factor receptor (Homo sapiens, UniProt P00533)
Epidermal growth factor receptor, sequence (P00533 whole entry): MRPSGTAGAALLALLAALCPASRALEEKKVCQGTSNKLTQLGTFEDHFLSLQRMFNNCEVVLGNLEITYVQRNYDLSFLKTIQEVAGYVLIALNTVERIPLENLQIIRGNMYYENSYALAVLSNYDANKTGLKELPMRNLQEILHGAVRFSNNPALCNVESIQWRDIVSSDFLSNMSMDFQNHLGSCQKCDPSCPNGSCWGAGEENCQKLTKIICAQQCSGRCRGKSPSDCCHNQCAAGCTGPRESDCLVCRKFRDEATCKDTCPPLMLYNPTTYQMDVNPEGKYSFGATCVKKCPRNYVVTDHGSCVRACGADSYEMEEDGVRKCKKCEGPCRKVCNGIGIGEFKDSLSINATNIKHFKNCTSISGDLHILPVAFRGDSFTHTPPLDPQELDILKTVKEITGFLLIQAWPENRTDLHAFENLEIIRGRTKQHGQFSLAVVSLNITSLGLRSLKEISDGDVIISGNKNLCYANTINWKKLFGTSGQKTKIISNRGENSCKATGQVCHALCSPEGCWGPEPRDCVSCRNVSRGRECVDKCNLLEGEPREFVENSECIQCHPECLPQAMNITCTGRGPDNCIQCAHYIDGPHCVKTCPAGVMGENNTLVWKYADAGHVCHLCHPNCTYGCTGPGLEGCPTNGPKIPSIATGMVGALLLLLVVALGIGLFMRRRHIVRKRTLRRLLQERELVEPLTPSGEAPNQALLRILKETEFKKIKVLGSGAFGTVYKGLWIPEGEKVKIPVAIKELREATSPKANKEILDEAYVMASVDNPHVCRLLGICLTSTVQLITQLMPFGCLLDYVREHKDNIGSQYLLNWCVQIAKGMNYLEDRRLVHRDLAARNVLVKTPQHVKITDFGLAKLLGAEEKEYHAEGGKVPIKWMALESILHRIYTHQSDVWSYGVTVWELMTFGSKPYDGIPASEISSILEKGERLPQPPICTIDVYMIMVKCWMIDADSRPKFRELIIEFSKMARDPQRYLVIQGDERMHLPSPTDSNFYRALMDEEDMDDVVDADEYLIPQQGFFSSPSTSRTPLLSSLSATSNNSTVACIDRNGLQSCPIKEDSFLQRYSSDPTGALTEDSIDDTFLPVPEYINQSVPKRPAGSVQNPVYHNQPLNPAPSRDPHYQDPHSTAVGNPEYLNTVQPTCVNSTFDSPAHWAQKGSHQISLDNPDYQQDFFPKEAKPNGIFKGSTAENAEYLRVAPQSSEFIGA

[4] = system: Plasmodium berghei; assay: Antimalarial activity against Plasmodium berghei ANKA infected in mouse assessed increase in survival time (reference value: 6.8 day); assay type: functional
[5] = system: Hemozoin; assay: Inhibition of beta-hematin formation; settings: for inhibition: concentration not given here
[6] = system: Plasmodium falciparum; assay: Antimalarial activity against CQ-resistant Plasmodium falciparum Dd2; assay type: functional, organism-based
[7] = system: HeLa; assay: Cytotoxicity against human HeLa cells at 2.5 uM; assay type: functional
[8] = system: Plasmodium falciparum; assay: Antimalarial activity against Plasmodium falciparum 3D7; assay type: functional, organism-based
[9] = system: Plasmodium berghei; assay: Antimalarial activity against Plasmodium berghei ANKA infected in mouse assessed increase in survival time at 20 mg/kg/day, ip for 4 days; assay type: functional; settings: time 4 day
[10] = system: Plasmodium berghei; assay: Antiplasmodial activity against Plasmodium berghei ANKA infected in mouse assessed as reduction in parasitaemia at 20 mg/kg/day, ip administered for 4 days; assay type: functional; set-up: scale not given: the % may be the effect or the level left; settings: time 4 day
[11] = system: Plasmodium berghei; assay: Antiplasmodial activity against Plasmodium berghei infected in mouse assessed as increase in mean survival time at 100 mg/kg, po administered for 3 days (reference value: 7.6 day); assay type: functional; settings: time 3 day
[12] = system: Plasmodium berghei; assay: Antiplasmodial activity against Plasmodium berghei infected in mouse assessed as reduction in parasitaemia at 200 mg/kg/day, ip administered for 4 days; assay type: functional; set-up: scale not given: the % may be the effect or the level left; settings: time 4 day
[13] = system: Hemozoin; assay: Inhibition of beta-hematin formation relative to control; settings: concentration not given here
[14] = system: HT-29; assay: Antiproliferative activity against human HT-29 cells; assay type: functional, cell-based
[15] = system: MIA PaCa-2; assay: Antiproliferative activity against human MIA PaCa-2 cells; assay type: functional, cell-based
[16] = system: NCI-H460; assay: Antiproliferative activity against human NCI-H460 cells; assay type: functional, cell-based
[17] = system: A-375; assay: Antiproliferative activity against human A-375 cells; assay type: functional, cell-based
[18] = system: PANC-1; assay: Antiproliferative activity against human PANC-1 cells; assay type: functional, cell-based
[19] = Antiproliferative activity against HUVEC cells; assay type: toxicity, cell-based; settings: human
[20] = system: HeLa; assay: Antiproliferative activity against human HeLa cells; assay type: functional, cell-based
[21] = system: KG-1a; assay: Antiproliferative activity against human KG-1a cells; assay type: functional, cell-based
[22] = system: MDA-MB-231; assay: Antiproliferative activity against human MDA-MB-231 cells; assay type: functional, cell-based
[23] = system: Leukemia cell; assay: Antiproliferative activity against human Leukemia cells; assay type: functional
[24] = system: Breast carcinoma cell; assay: Antiproliferative activity against human breast cancer cells; assay type: functional
[25] = target: Hepatocyte growth factor receptor (Homo sapiens, UniProt P08581); assay: Inhibition of c-Met (unknown origin)
Hepatocyte growth factor receptor, sequence (P08581 whole entry): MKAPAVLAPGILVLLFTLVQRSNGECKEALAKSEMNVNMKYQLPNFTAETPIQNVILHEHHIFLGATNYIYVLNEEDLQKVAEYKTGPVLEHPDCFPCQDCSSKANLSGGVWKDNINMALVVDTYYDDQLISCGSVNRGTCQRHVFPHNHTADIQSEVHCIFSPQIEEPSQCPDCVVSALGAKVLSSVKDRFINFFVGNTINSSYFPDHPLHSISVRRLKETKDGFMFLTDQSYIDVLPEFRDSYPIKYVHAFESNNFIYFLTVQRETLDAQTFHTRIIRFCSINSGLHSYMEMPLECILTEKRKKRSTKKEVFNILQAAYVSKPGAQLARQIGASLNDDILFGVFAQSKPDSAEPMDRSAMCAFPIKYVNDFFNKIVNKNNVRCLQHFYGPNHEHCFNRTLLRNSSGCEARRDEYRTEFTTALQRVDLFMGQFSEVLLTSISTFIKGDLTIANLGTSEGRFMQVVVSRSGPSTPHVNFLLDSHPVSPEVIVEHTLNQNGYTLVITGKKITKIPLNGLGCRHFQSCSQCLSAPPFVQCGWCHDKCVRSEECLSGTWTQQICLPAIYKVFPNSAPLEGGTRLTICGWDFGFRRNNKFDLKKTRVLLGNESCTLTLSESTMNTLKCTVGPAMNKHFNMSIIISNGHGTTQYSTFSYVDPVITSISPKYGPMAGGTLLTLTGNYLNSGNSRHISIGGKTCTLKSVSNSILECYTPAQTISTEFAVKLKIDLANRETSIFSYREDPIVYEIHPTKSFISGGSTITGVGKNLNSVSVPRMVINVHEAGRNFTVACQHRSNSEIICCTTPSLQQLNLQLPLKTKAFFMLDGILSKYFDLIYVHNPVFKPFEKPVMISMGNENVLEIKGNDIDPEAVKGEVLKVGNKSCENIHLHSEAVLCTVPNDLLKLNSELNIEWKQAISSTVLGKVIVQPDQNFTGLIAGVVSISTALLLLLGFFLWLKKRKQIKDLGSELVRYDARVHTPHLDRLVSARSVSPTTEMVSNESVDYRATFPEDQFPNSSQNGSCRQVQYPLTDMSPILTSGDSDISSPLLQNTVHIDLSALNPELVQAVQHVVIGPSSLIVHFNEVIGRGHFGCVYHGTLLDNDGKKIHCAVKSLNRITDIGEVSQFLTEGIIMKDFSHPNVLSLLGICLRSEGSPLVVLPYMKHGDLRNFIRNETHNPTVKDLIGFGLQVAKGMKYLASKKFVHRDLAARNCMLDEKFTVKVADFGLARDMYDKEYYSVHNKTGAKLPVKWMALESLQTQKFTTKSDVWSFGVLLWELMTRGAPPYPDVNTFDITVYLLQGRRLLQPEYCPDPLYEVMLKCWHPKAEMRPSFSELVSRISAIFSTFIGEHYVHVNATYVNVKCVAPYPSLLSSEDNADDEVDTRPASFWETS

[26] = Antiproliferative activity against human CNS cells; assay type: functional; settings: CNS cell
[27] = target: Phosphatidylinositol 4,5-bisphosphate 3-kinase catalytic subunit gamma isoform (Homo sapiens, UniProt P48736); assay: Inhibition of PI3K gamma (unknown origin)
Phosphatidylinositol 4,5-bisphosphate 3-kinase catalytic subunit gamma isoform, sequence (P48736 whole entry, canonical isoform): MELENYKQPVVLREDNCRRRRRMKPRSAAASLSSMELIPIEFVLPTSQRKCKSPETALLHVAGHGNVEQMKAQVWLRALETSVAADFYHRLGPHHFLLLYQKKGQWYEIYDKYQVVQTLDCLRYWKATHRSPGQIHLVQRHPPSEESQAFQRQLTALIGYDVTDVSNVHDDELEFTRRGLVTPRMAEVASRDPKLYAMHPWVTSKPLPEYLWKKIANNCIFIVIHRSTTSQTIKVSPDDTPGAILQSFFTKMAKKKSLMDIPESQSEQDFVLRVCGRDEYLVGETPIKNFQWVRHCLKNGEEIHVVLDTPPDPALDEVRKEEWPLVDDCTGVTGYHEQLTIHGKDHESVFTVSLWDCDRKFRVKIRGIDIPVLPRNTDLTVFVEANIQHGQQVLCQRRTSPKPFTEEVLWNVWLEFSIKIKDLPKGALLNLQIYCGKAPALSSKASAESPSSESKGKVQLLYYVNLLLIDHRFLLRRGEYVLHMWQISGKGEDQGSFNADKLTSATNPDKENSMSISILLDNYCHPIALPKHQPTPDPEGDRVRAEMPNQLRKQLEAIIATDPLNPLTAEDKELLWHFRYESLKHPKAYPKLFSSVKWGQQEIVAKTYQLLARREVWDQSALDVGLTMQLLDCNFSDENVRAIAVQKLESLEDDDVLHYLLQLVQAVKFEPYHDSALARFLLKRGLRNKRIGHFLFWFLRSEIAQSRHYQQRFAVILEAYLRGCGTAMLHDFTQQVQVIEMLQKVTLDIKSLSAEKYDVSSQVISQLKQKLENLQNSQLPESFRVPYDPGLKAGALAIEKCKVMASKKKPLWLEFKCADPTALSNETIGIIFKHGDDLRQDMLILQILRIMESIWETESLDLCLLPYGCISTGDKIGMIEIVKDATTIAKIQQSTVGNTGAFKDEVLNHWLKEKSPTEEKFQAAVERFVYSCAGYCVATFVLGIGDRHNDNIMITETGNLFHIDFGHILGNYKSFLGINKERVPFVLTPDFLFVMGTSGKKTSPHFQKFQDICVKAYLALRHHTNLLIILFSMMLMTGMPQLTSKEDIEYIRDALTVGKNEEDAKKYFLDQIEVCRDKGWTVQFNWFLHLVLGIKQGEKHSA

[28] = system: K562; assay: Cytotoxicity against human K562 cells; assay type: functional, cell-based
[29] = system: A549; assay: Cytotoxicity against human A549 cells; assay type: functional, cell-based
[30] = system: MCF7; assay: Antiproliferative activity against mitoxantrone resistant human MCF7 cells; assay type: functional, cell-based
[31] = system: A2780; assay: Antiproliferative activity against cisplatin resistant human A2780 cells; assay type: functional, cell-based
[32] = system: MCF7; assay: Antiproliferative activity against human MCF7 cells; assay type: functional, cell-based; settings: Homo sapiens, MCF7
[33] = system: A2780; assay: Antiproliferative activity against human A2780 cells; assay type: functional, cell-based
[34] = system: Plasmodium falciparum; assay: Antimalarial activity against CQ-sensitive Plasmodium falciparum D6; assay type: functional, organism-based
[35] = system: Plasmodium falciparum; assay: Antimalarial activity against CQ-resistant Plasmodium falciparum W2; assay type: functional, organism-based

SMILES: COc1ccc2nc(Cl)c(C3CC(c4ccc(C)cc4)=NN3c3nc(C)c(C(=O)Nc4ccccc4)s3)cc2c1 (configuration not stated)
pIC50 [3]: 7.37

SMILES: COc1ccc2nc(Cl)c(/C=C/C(=O)c3ccc(C)cc3)cc2c1
pIC50 [3]: 7.43

SMILES: COc1cc(NC(C)CCCN)c2ncccc2c1 (configuration not stated) [PRIMAQUINE]
pIC50 [2]: 5.96

SMILES: COC(=O)[C@@H](NC(=O)CSc1ccnc2cc(Cl)ccc12)C(C)C
Time [4]: 24.6 days | inhibition [5]: 61.1%

SMILES: CN(C)CCNc1cc(/C=C/c2ccc(Br)cc2)nc2ccccc12
pIC50 [6]: 7.48

SMILES: CCOc1ccc(Nc2cc(C)nc3ccc(Cl)cc23)cc1
Activity [7]: 8%

SMILES: CCN(CC)CCCC(C)Nc1ccnc2cc(Cl)ccc12 (configuration not stated) [CHLOROQUINE]
pEC50 [8]: 6.78 | Time [9]: 24.99 days | Activity [10]: 0.32% | Time [11]: 26.2 days | pIC50 [5]: 3.05 | Activity [12]: 100% | inhibition [13]: 52.1%

SMILES: COc1nc2ccccc2cc1/C=C1/C=C(c2ccccc2)NC1=O
pIC50 [14]: 5.72 | pIC50 [15]: 5.72 | pIC50 [16]: 5.72 | pIC50 [17]: 5.72 | pIC50 [18]: 5.72

SMILES: COc1ccc(/C=C\c2cc(OC)c(OC)c(OC)c2)cc1O [COMBRETASTATIN A4]
pIC50 [14]: 6.74 | pIC50 [15]: 6.74 | pIC50 [16]: 6.74 | pIC50 [17]: 6.74 | pIC50 [18]: 6.74 | pIC50 [19]: 5.81

SMILES: COc1cc2nc(N3CCCN(C)CC3)nc(NC3CCN(Cc4ccccc4)CC3)c2cc1OC
Activity [7]: 63%

SMILES: COc1cc2nccc(Oc3ccc(NC(=O)C4(C(=O)Nc5ccc(F)cc5)CC4)cc3)c2cc1OC(=O)c1ccc(N)cc1
GI50 [23]: 290 nM | GI50 [24]: 290 nM | pIC50 [25]: 7.72 | GI50 [26]: 290 nM

SMILES: CN(C)CCNc1cc(/C=C/c2cccs2)nc2ccccc12
pIC50 [6]: 7.48

SMILES: COC(=O)[C@H](Cc1c[nH]c2ccccc12)NC(=O)CSc1ccnc2cc(Cl)ccc12
Time [4]: 24.6 days | inhibition [5]: 61.1%

SMILES: Cc1ccc(-c2cc(C(=O)N/N=C(\C=C\c3ccc(Cl)cc3)c3ccc(N)cc3)c3ccccc3n2)cc1
pIC50 [27]: 6.71 | pIC50 [28]: 5.72 | pIC50 [29]: 5.72

SMILES: Cc1c(Cl)ccc2cc(/C=C/C(=O)c3ccc(Br)cc3)c(Cl)nc12
pIC50 [34]: > 7.30 | pIC50 [35]: 7.42 | Time [11]: 11.8 days

SMILES: COc1ccc(Nc2cc(/C=C/c3ccc([N+](=O)[O-])cc3)nc3cc(OC)c(OC)c(OC)c23)cc1OC
pIC50 [30]: 5.95 | pIC50 [31]: 5.95 | pIC50 [32]: 5.95 | pIC50 [19]: 5.11 | pIC50 [33]: 5.95

More lines, main results first:

pIC50 [1]: 6.42 | pIC50 [2]: 5.27
SMILES: COc1cc(C)c2c(Oc3ccc(F)c(F)c3)c(OC)cc(NC(C)CCON=C(C)C)c2n1 (configuration not stated)

pIC50 [14]: 5.72 | pIC50 [15]: 5.72 | pIC50 [16]: 5.72 | pIC50 [17]: 5.72 | pIC50 [18]: 5.72
SMILES: CSc1nc2ccccc2cc1/C=C1/C=C(c2ccccc2)NC1=O

pIC50 [20]: 7.30 | pIC50 [22]: 6.27
SMILES: COc1ccc2nc(-c3ccc(Br)cc3)cc(-c3nnc(Nc4ccc([N+](=O)[O-])cc4)o3)c2c1
pIC50 [21]: 5.92

pIC50 [27]: 7.28
SMILES: COc1ccc(-c2cc(C(=O)N/N=C(\C=C\c3ccc(Cl)cc3)c3ccc(N)cc3)c3ccccc3n2)cc1
pIC50 [28]: 5.72 | pIC50 [29]: 5.72

pIC50 [31]: 6.30 | pIC50 [32]: 6.30 | pIC50 [33]: 6.30
SMILES: COc1ccc(/C=C/c2cc(Nc3cc(OC)c(OC)c(OC)c3)c3c(OC)c(OC)c(OC)cc3n2)cc1OC
pIC50 [30]: 6.30 | pIC50 [19]: 5.11

pIC50 [3]: 7.50
SMILES: COc1ccc2nc(Cl)c(C3CC(c4ccc(C)cc4)=NN3c3nc(-c4ccc(F)cc4)cs3)cc2c1 (configuration not stated)

GI50 [23]: 290 nM | GI50 [24]: 290 nM | pIC50 [25]: 7.72
SMILES: COc1cc2nccc(Oc3ccc(NC(=O)C4(C(=O)Nc5ccc(F)cc5)CC4)cc3)c2cc1Oc1ccc(N)cn1
GI50 [26]: 290 nM

pIC50 [20]: 7.30 | pIC50 [22]: 6.27
SMILES: Cc1ccc(Nc2nnc(-c3cc(-c4ccc(Br)cc4)nc4ccccc34)o2)cc1
pIC50 [21]: 5.92

pIC50 [1]: 6.42 | pIC50 [2]: 5.27
SMILES: COc1cc(C)c2c(Oc3cccc(C(F)(F)F)c3)c(OC)cc(NC(C)CCON)c2n1 (configuration not stated)
